IC50 and Km data for four molecules are collected here from article PMC7034854, “Inter-species variation in monovalent anion substrate selectivity and inhibitor sensitivity in the sodium iodide symporter (NIS)” (PLoS ONE, 2020).

For data set [1], the target named is T1, sodium iodide symporter (zNIS) (Danio rerio, UniProt A0AC58G7K6).
T1 construct: gene slc5a5; N-terminally HA-tagged NIS (601 residues, NP_001082860.1) expressed in HeLa cells
T1 sequence (A0AC58G7K6 1-601): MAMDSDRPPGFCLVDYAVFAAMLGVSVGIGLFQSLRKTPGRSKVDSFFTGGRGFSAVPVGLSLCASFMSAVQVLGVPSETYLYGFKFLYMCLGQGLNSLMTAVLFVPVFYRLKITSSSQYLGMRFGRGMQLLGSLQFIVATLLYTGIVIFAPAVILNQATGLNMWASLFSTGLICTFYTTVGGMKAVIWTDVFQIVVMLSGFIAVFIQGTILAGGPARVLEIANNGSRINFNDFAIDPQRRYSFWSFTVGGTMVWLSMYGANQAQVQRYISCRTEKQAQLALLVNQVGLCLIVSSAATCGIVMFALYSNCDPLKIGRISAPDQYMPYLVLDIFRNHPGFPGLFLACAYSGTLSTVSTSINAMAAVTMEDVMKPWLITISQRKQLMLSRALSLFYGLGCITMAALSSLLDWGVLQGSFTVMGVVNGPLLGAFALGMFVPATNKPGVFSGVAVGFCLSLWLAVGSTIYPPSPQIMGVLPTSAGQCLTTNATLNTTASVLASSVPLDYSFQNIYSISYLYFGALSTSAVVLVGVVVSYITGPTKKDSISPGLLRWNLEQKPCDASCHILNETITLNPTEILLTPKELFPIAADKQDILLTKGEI
The experiment in a line: […]- uptake inhibition in transduced HeLa cells. The data set is classed as cell-based.

Data set [2] has as its target T2, sodium iodide symporter (wNIS) (Balaenoptera acutorostrata, UniProt A0A384B8D1).
T2 construct: gene SLC5A5; N-terminally HA-tagged NIS (642 residues, XP_007195539.1) expressed in HeLa cells
T2 sequence (A0A384B8D1 1-642): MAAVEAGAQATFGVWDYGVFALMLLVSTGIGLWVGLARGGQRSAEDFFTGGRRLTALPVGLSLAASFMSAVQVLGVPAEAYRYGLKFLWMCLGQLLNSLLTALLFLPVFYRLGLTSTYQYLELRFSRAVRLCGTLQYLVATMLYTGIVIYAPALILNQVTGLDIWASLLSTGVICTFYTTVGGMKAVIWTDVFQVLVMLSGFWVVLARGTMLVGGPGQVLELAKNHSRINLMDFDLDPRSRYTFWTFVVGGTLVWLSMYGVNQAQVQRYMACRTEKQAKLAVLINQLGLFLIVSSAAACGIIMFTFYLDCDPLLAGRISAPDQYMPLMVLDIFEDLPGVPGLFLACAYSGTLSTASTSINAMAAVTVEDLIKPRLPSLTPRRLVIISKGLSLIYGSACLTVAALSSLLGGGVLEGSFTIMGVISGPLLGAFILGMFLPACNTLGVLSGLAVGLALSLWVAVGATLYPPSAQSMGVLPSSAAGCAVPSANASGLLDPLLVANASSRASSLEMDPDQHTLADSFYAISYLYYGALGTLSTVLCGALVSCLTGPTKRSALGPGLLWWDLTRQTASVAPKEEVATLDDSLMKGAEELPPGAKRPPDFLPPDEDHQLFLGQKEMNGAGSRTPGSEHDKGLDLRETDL
The experiment in a line: […]- uptake inhibition in transduced HeLa cells. It counts as cell-based.

The target in data set [3] is T3, sodium iodide symporter (hNIS) (Homo sapiens, UniProt Q92911).
T3 construct: gene SLC5A5; N-terminally HA-tagged NIS (643 residues) expressed in HeLa cells
T3 sequence (Q92911 1-643): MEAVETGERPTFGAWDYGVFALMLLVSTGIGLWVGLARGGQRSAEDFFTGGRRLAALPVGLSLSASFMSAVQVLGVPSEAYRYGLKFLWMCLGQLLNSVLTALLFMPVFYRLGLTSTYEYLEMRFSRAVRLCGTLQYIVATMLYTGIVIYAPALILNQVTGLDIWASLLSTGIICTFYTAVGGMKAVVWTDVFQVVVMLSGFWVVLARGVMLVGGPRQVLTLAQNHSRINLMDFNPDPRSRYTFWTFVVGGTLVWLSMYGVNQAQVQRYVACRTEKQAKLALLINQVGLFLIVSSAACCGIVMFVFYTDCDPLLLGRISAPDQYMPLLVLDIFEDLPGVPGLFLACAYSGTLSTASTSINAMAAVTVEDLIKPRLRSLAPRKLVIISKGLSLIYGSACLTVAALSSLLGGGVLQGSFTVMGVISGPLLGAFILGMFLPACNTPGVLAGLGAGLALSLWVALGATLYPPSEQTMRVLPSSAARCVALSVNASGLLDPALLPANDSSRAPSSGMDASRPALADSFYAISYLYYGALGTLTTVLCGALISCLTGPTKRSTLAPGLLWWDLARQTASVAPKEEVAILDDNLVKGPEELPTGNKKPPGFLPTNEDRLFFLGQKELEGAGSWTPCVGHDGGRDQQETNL
Description: […]- uptake inhibition in transduced HeLa cells. It counts as cell-based.

Substrate in data set [4]: I
The experiment in a line: iodide uptake kinetics (Km) in transduced HeLa cells. It counts as cell-based, Danio rerio. To be noted: Na+. An excerpt: iodide uptake kinetics (Km) in transduced HeLa cells on sodium iodide symporter (zNIS) | zNIS binds to iodide with the greatest affinity of the proteins examined in this study

Substrate in data set [5]: I
The data set is described as above. It counts as cell-based, Balaenoptera acutorostrata. To be noted: Na+.

Substrate in data set [6]: I
The data set is described as above. To be noted: Na+. It counts as cell-based, Homo sapiens.

A word on the IC50: it is the concentration that gives 50% inhibition. A low value points to higher potency. For `[O-][Cl+3]([O-])([O-])O` [perchlorate], the IC50 in data set [1] turned out to be 81 nM; in data set [2], 4600 nM; in data set [3], 1570 nM.

B1: sodium iodide symporter (zNIS) (Danio rerio) (protein)
chain: MAMDSDRPPGFCLVDYAVFAAMLGVSVGIGLFQSLRKTPGRSKVDSFFTGGRGFSAVPVGLSLCASFMSAVQVLGVPSETYLYGFKFLYMCLGQGLNSLMTAVLFVPVFYRLKITSSSQYLGMRFGRGMQLLGSLQFIVATLLYTGIVIFAPAVILNQATGLNMWASLFSTGLICTFYTTVGGMKAVIWTDVFQIVVMLSGFIAVFIQGTILAGGPARVLEIANNGSRINFNDFAIDPQRRYSFWSFTVGGTMVWLSMYGANQAQVQRYISCRTEKQAQLALLVNQVGLCLIVSSAATCGIVMFALYSNCDPLKIGRISAPDQYMPYLVLDIFRNHPGFPGLFLACAYSGTLSTVSTSINAMAAVTMEDVMKPWLITISQRKQLMLSRALSLFYGLGCITMAALSSLLDWGVLQGSFTVMGVVNGPLLGAFALGMFVPATNKPGVFSGVAVGFCLSLWLAVGSTIYPPSPQIMGVLPTSAGQCLTTNATLNTTASVLASSVPLDYSFQNIYSISYLYFGALSTSAVVLVGVVVSYITGPTKKDSISPGLLRWNLEQKPCDASCHILNETITLNPTEILLTPKELFPIAADKQDILLTKGEI
notes: N-terminally HA-tagged NIS (601 residues, NP_001082860.1) expressed in HeLa cells
For orientation: Km means the concentration of substrate that gives half-maximal velocity. For the molecule B1, the Km in data set [4] was 3.688 µM.

B2: sodium iodide symporter (wNIS) (Balaenoptera acutorostrata) (protein)
chain: MAAVEAGAQATFGVWDYGVFALMLLVSTGIGLWVGLARGGQRSAEDFFTGGRRLTALPVGLSLAASFMSAVQVLGVPAEAYRYGLKFLWMCLGQLLNSLLTALLFLPVFYRLGLTSTYQYLELRFSRAVRLCGTLQYLVATMLYTGIVIYAPALILNQVTGLDIWASLLSTGVICTFYTTVGGMKAVIWTDVFQVLVMLSGFWVVLARGTMLVGGPGQVLELAKNHSRINLMDFDLDPRSRYTFWTFVVGGTLVWLSMYGVNQAQVQRYMACRTEKQAKLAVLINQLGLFLIVSSAAACGIIMFTFYLDCDPLLAGRISAPDQYMPLMVLDIFEDLPGVPGLFLACAYSGTLSTASTSINAMAAVTVEDLIKPRLPSLTPRRLVIISKGLSLIYGSACLTVAALSSLLGGGVLEGSFTIMGVISGPLLGAFILGMFLPACNTLGVLSGLAVGLALSLWVAVGATLYPPSAQSMGVLPSSAAGCAVPSANASGLLDPLLVANASSRASSLEMDPDQHTLADSFYAISYLYYGALGTLSTVLCGALVSCLTGPTKRSALGPGLLWWDLTRQTASVAPKEEVATLDDSLMKGAEELPPGAKRPPDFLPPDEDHQLFLGQKEMNGAGSRTPGSEHDKGLDLRETDL
notes: N-terminally HA-tagged NIS (642 residues, XP_007195539.1) expressed in HeLa cells
For the molecule B2, the Km in data set [5] stood at 30.04 µM.

B3: sodium iodide symporter (hNIS) (Homo sapiens) (protein)
chain: MEAVETGERPTFGAWDYGVFALMLLVSTGIGLWVGLARGGQRSAEDFFTGGRRLAALPVGLSLSASFMSAVQVLGVPSEAYRYGLKFLWMCLGQLLNSVLTALLFMPVFYRLGLTSTYEYLEMRFSRAVRLCGTLQYIVATMLYTGIVIYAPALILNQVTGLDIWASLLSTGIICTFYTAVGGMKAVVWTDVFQVVVMLSGFWVVLARGVMLVGGPRQVLTLAQNHSRINLMDFNPDPRSRYTFWTFVVGGTLVWLSMYGVNQAQVQRYVACRTEKQAKLALLINQVGLFLIVSSAACCGIVMFVFYTDCDPLLLGRISAPDQYMPLLVLDIFEDLPGVPGLFLACAYSGTLSTASTSINAMAAVTVEDLIKPRLRSLAPRKLVIISKGLSLIYGSACLTVAALSSLLGGGVLQGSFTVMGVISGPLLGAFILGMFLPACNTPGVLAGLGAGLALSLWVALGATLYPPSEQTMRVLPSSAARCVALSVNASGLLDPALLPANDSSRAPSSGMDASRPALADSFYAISYLYYGALGTLTTVLCGALISCLTGPTKRSTLAPGLLWWDLARQTASVAPKEEVAILDDNLVKGPEELPTGNKKPPGFLPTNEDRLFFLGQKELEGAGSWTPCVGHDGGRDQQETNL
notes: N-terminally HA-tagged NIS (643 residues) expressed in HeLa cells
Regarding B3, in data set [6], the Km was 12.01 µM.
